We go through eight molecules from PubChem BioAssay (NCI).

What all share (assay): inhibition of tumour cell growth, NCI panel, 48 h
The subject of assay [1] is HT29 colon.
The subject of assay [2] is SK-MEL-5 melanoma.
In assay [3] the test system is UACC-62 melanoma.
The subject of assay [4] is 786-0 renal.
Assay [5] concerns HCT-15 colon.
For assay [6], the system named is EKVX NSCLC.
Assay [7] has as its system HCC-2998 colon.
The subject of assay [8] is PC-3 prostate.
In assay [9] the test system is U251 CNS.
For assay [10], the system named is MCF7 breast.

SMILES strings stand for the structures.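 Five compound concentrations were applied to cells in 96-well plates for 48 hours; endpoints were derived by simple linear interpolation of the resulting dose-response curve. GI50: concentration for 50% inhibition of growth. TGI marks complete inhibition of growth.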 Some results are limits rather than exact numbers.

Turning to `CC1=CC(=O)CC(C)(C)C1(O)/C=C/C(C)=C/C(=O)O` (configuration not stated), the TGI in [1], in [2], in assay [3], in assay [4], in assay [5] and in assay [6] was greater than 100 µM throughout. Moreover, the TGI in assay [7], in assay [8], in [9] and in [10] was greater than 100 µM in each case.
Consider `CNC1C(O)C(OC2C(N)CC(N)C(OC3OC(CN)=CCC3N)C2O)OCC1(C)O` (configuration not stated), for which the TGI in assay [1], in [2], in [3], in assay [4], in assay [5] and in assay [6] was greater than 100 µM in each case. Besides, the TGI in [7], in [8], in [9] and in [10] was greater than 100 µM in each case.
Turning to `C/C1=C/C(=O)O[C@@H]2C[C@@H](CC[C@H](C)/C=C\C=C\CC1)O[C@@](O)([C@@H]1CSC(=O)N1CO)C2`, the GI50 in [1] was 56.2 nM; in [2] it was 222 nM; in [3] it was 86.3 nM; in [4] it was 137 nM; in [5], 68.9 nM; in assay [6] it was 144 nM. For the same molecule, the GI50 in [7] is 13 µM; in assay [8], 36.7 nM; in assay [9] it was 99.2 nM; in assay [10], 13.1 µM. Besides, the TGI in assay [1] is 20.3 µM; in assay [2], 13.7 µM; in assay [3], 26.2 µM; in assay [4], 12.3 µM; in assay [5], greater than 91.4 µM; in assay [6], greater than 100 µM. Moreover, the TGI in assay [7] came to 65.4 µM; in assay [8], 3.13 µM; in assay [9], 13.6 µM; in [10], 37.7 µM.
With `O=C1/C=C/[C@@H](O)[C@@H]2C[C@@H](O)C[C@H]2/C=C/CCC[C@H](CCc2ccc(C(F)(F)F)cc2)O1`, the GI50 in assay [1] is 127 nM; in assay [2], 25.7 nM; in [3], 169 nM; in [4] it was 82.6 nM; in assay [5], 340 nM; in assay [6], 252 nM. Besides, the GI50 in assay [7] was 0.238 µM; in assay [8], 401 nM; in assay [9], 272 nM; in assay [10], 0.197 µM. Moreover, the TGI in [1] is 2.1 µM; in assay [2], 0.0647 µM; in [3], 17.3 µM; in assay [4], 0.378 µM; in [5] it was 2.36 µM; in [6] it was 6.67 µM. Further, the TGI was 3.87 µM in assay [7], greater than 83.3 µM in [8], 21.3 µM in [9] and 0.457 µM in assay [10].
For `NC(=O)C1c2ccccc2C=Cc2ccccc21`, the GI50 in [1], in [2], in assay [3], in [4], in [5] and in assay [6] was greater than 100000 nM each time. The GI50 is greater than 100 µM in assay [7], greater than 100000 nM in assay [8], greater than 100000 nM in assay [9] and greater than 100 µM in assay [10]. Moreover, the TGI in assay [1], in [2], in assay [3], in [4], in assay [5] and in [6] was greater than 100 µM in each case. The TGI in assay [7], in assay [8], in assay [9] and in [10] was greater than 100 µM throughout.
As to `CCCCCCCCCCCCNC(=O)[C@H]1CSC(c2cc3ccccc3s2)N1` (some centres not stated), the GI50 is 1740 nM in assay [1]; 4340 nM in [2]; 1150 nM in assay [3]; 4600 nM in assay [4]; 3690 nM in assay [5]; 951 nM in assay [6]. The GI50 is 4.88 µM in [7], 1300 nM in assay [8], 2610 nM in [9] and 4.02 µM in assay [10]. Moreover, the TGI in assay [1] came out at 5.87 µM; in assay [2], 8.72 µM; in [3], 4.28 µM; in assay [4] it was 9.11 µM; in [5], 8.17 µM; in assay [6] it was 2.69 µM. Further, the TGI in assay [7] was 9.72 µM; in assay [8] it was 4.21 µM; in assay [9], 7.19 µM; in assay [10], 9.15 µM.
`CCN(CC)c1ccc(C2CC(c3cc(OC)c(OC)c(OC)c3)=NN2)cc1` (configuration not stated): the GI50 is 365 nM in assay [1]; 706 nM in assay [2]; 446 nM in [3]; 303 nM in assay [4]; 597 nM in assay [5]; 305 nM in assay [6]. Further, the GI50 was 1.15 µM in assay [7], 342 nM in assay [8], 420 nM in assay [9] and 0.227 µM in [10]. Further, the TGI in assay [1] was greater than 43 µM; in [2], 3.52 µM; in [3], greater than 68.2 µM; in assay [5], greater than 100 µM; in assay [7], greater than 27 µM; in [8] it was 35.2 µM. Further, in assay [9], the TGI is greater than 100 µM.
`CN[C@@H](C)C(=O)N[C@H]1CN(C(=O)CC(C)C)CC[C@H]2CC[C@@H](C(=O)NC(c3ccccc3)c3ccccc3)N2C1=O`: the GI50 in assay [1] is 53200 nM; in assay [2] it was 41900 nM; in [3], greater than 100000 nM; in assay [4], greater than 100000 nM; in [5], greater than 100000 nM; in [6] it was greater than 100000 nM. Besides, the GI50 in assay [7] was greater than 100 µM; in [8] it was greater than 100000 nM; in assay [9], greater than 100000 nM; in assay [10], greater than 100 µM. Also, the TGI in [1], in [2], in [3], in assay [4], in assay [5] and in [6] was greater than 100 µM in each case. For the same molecule, the TGI in assay [7], in assay [8], in [9] and in assay [10] was greater than 100 µM each time.
